What was measured:
HepG2 2.2.15 [1] = test: Cytotoxicity against human HepG2.2.15 cells assessed as reduction in cell viability; format: functional
Hepatitis B virus [2] = test: Antiviral activity against wild type HBV infected in human HepG2 2.2.15 cells assessed as reduction in viral replication by DNA HYB (Vision)/neutral red (Tox) assay; format: functional, organism-based; details: HepG2.2.15
[3] = Cytotoxicity against human HFF cells infected with VZV Ellen virus assessed as reduction in cell viability by cell titer-glo assay; format: toxicity, cell-based
Hepatitis B virus [4] = test: Antiviral activity against wild type HBV infected in human HepG2 2.2.15 cells assessed as reduction in viral replication pre incubated for 3 days followed by replacement with fresh compounds for another 3 days prior to pronase treatment by RT-qPCR analysis; format: functional, organism-based, HepG2.2.15; details: for EC50: HepG2.2.15; for EC90: HepG2.2.15, 144 h, time 6 day
[5] = Selectivity index, ratio of CC50 cytotoxicity against human HepG2.2.15 cells assessed as reduction in cell viability to EC50 for antiviral activity against wild type HBV infected in human HepG2 2.2.15 cells assessed as reduction in viral replication by DNA HYB (Vision)/neutral red (Tox) assay; format: toxicity, cell-based; details: read-out: Selectivity Index
[6] = Cytotoxicity against human MT4 cells assessed as reduction in cell viability by MTT assay; format: toxicity, cell-based
[7] = Cytotoxicity against human HFF cells infected with HCMV AD-169 virus assessed as reduction in cell viability by cell titer-glo assay; format: toxicity, cell-based
[8] = Selectivity index, ratio of CC50 cytotoxicity against human HepG2.2.15 cells assessed as reduction in cell viability to EC50 for antiviral activity against wild type HBV infected in human HepG2 2.2.15 cells assessed as reduction in viral replication by DNA HYB (RI)/neutral red (Tox) assay; format: toxicity, cell-based; details: read-out: Selectivity Index
Human alphaherpesvirus 3 [9] = test: Antiviral activity against VZV Ellen infected in HFF cells assessed as reduction in viral replication measured after 14 days; format: functional, organism-based; details: Human alphaherpesvirus 3, Ellen, 336 h; for EC90: time 14 day
Hepatitis B virus [10] = test: Antiviral activity against wild type HBV infected in human HepG2 2.2.15 cells assessed as reduction in viral replication by DNA HYB (RI)/neutral red (Tox) assay; format: functional, organism-based; details: HepG2.2.15
[11] = (§1) Selectivity index, ratio of CC50 for cytotoxicity against human HFF cells infected with VZV Ellen virus assessed as reduction in cell viability by cell titer-glo assay to EC50 for antiviral activity against VZV Ellen infected in HFF cells assessed as inhibition of virus-induced cytopathic effect measured after 14 days; format: toxicity, cell-based; details: read-out: Ratio CC50/EC50
[12] = (§2) Selectivity index, ratio of CC50 for cytotoxicity against human MT4 cells assessed as reduction in cell viability by MTT assay to EC50 for anti-HIV activity against wild type HIV-1 IIIB infected in human MT4 cells assessed as inhibition of HIV-induced cytopathic effect measured after 5 days by MTT assay; format: toxicity, cell-based; details: read-out: Ratio CC50/EC50
[13] = test system: Human immunodeficiency virus 2; test: Anti-HIV activity against wild type HIV-2 ROD infected in human MT4 cells assessed as inhibition of HIV-induced cytopathic effect measured after 5 days by MTT assay; format: functional, organism-based; details: Human immunodeficiency virus 2, ROD, MT4, 120 h
[14] = test system: Human immunodeficiency virus 1; test: Anti-HIV activity against wild type HIV-1 IIIB infected in human MT4 cells assessed as inhibition of HIV-induced cytopathic effect measured after 5 days by MTT assay; format: functional, organism-based; details: Human immunodeficiency virus 1, IIIB, MT4, 120 h
[15] = as §1, with “HCMV AD-169” for “VZV Ellen”; format: toxicity, cell-based; details: read-out: Ratio CC50/EC50
Human betaherpesvirus 5 [16] = test: Antiviral activity against HCMV AD-169 infected in HFF cells assessed as reduction in viral replication measured after 14 days; format: functional, organism-based; details: Human betaherpesvirus 5, AD-169, HFF, 336 h; for EC90: time 14 day
[17] = as §2, with “HIV-2 ROD” for “HIV-1 IIIB”; format: toxicity, cell-based; details: read-out: Ratio CC50/EC50
HepG2 2.2.15 [18] = test: Cytotoxicity against human HepG2.2.15 cells assessed as reduction in cell viability by neutral red uptake assay; format: functional
[19] = Cytotoxicity against human HEL cells assessed as change in cell morphology measured after 3 days […]; format: toxicity, cell-based; details: time 3 day
[20] = Cytotoxicity against human HEL cells assessed as reduction in cell growth measured after 3 days by coulter counting method; format: toxicity, cell-based; details: time 3 day
Human alphaherpesvirus 3 [21] = test: Antiviral activity against VZV TK- infected in HEL cells assessed as reduction in virus plaque formation; format: functional, organism-based; details: Human alphaherpesvirus 3, TK-
Human betaherpesvirus 5 [22] = test: Antiviral activity against HCMV Davis infected in HEL cells assessed as reduction in virus plaque formation; format: functional, organism-based; details: Human betaherpesvirus 5, Davis
Human betaherpesvirus 5 [23] = test: Antiviral activity against HCMV AD-169 infected in HEL cells assessed as reduction in virus plaque formation; format: functional, organism-based; details: Human betaherpesvirus 5, AD-169, HEL
HepG2 2.2.15 [24] = test: Cytotoxicity against human HepG2.2.15 cells assessed as reduction in cell viability incubated for 1 to 4 hrs by MTS uptake assay; format: functional; details: time 1-4 hrs
Human alphaherpesvirus 3 [25] = test: Antiviral activity against VZV TK+ infected in HEL cells assessed as reduction in virus plaque formation; format: functional, organism-based; details: Human alphaherpesvirus 3, TK+

SMILES	CC50 (HepG2 2.2.15 [1]) [µM]	CC50 [3] [µM]	EC50 (Hepatitis B virus [4]) [µM]	EC90 (Hepatitis B virus [4]) [µM]	CC50 [6] [µM]	CC50 [7] [µM]	EC50 (Human alphaherpesvirus 3 [9]) [µM]	EC90 (Human alphaherpesvirus 3 [9]) [µM]	selectivity ratio at 336 h [11]	selectivity ratio at 120 h [12]	EC50 [13] [µM]	EC50 [14] [µM]	selectivity ratio at 336 h [15]	EC50 (Human betaherpesvirus 5 [16]) [µM]	EC90 (Human betaherpesvirus 5 [16]) [µM]	selectivity ratio at 120 h [17]	CC50 (HepG2 2.2.15 [18]) [µM]	MCC at 72 h [19] [µM]	CC50 at 72 h [20] [µM]	EC50 (Human betaherpesvirus 5 [22]) [µM]	further results
C#CC(CO)(Cn1cnc2c(=O)[nH]c(N)nc21)OCP(=O)(O)O (stereo unspecified)	> 100	> 150	0.37	0.83	> 364	> 150	116	> 150	> 1	> 97	1.28	3.73	> 10	14.4	> 150	> 287	> 100				EC50 (Hepatitis B virus [2]): 0.31 µM; EC90 (Hepatitis B virus [2]): 0.8 µM; selectivity ratio [5]: > 322; selectivity ratio [8]: > 185; EC50 (Hepatitis B virus [10]): 0.54 µM; EC90 (Hepatitis B virus [10]): 1.8 µM
C#CC(CO)(Cn1cnc2c(N)ncnc21)OCP(=O)(O)O (racemic)		131	25	62	> 382	145	> 30	> 30	< 4	> 14	18	26.6	< 5	30	> 30	> 21	> 100				
C#C[C@@](CO)(Cn1cnc2c(=O)[nH]c(N)nc21)OCP(=O)(O)O	> 100		0.0187																		
C#C[C@](CO)(Cn1cnc2c(=O)[nH]c(N)nc21)OCP(=O)(O)O	> 100		0.497																		
Nc1nc2c(ncn2COC(CO)CO)c(=O)[nH]1 [GANCICLOVIR]						> 150								0.86	74.2						
CC(CO)(Cn1cnc2c(N)ncnc21)OCP(=O)(O)O (racemic)			0.82	21.8	> 352					1	> 352	> 352				1		> 315	205	315	EC50 (Human alphaherpesvirus 3 [21]): 36.9 µM; EC50 (Human betaherpesvirus 5 [23]): 115 µM; CC50 (HepG2 2.2.15 [24]): > 100 µM; EC50 (Human alphaherpesvirus 3 [25]): 30.8 µM
C[C@@](CO)(Cn1cnc2c(=O)[nH]c(N)nc21)OCP(=O)(O)O	> 100		0.0423																		
CC(CO)(Cn1cnc2c(=O)[nH]c(N)nc21)OCP(=O)(O)O (racemic)			0.14	38.1	228					7	42.1	32.5				5		300	21.6	5.37	EC50 (Human alphaherpesvirus 3 [21]): 3.6 µM; EC50 (Human betaherpesvirus 5 [23]): 5.37 µM; CC50 (HepG2 2.2.15 [24]): > 100 µM; EC50 (Human alphaherpesvirus 3 [25]): 2.4 µM
Nc1nc2c(ncn2COCCO)c(=O)[nH]1 [ACYCLOVIR]																		> 444	> 444	2.08	EC50 (Human betaherpesvirus 5 [23]): 2.27 µM
C#CC(CO)(Cn1ccc(=O)[nH]c1=O)OCP(=O)(O)O (racemic)		> 150	21	77	> 411	> 150	20.5	> 150	> 7	1	> 411	> 411	1	150	> 150	1	> 100				

From ChEMBL document CHEMBL5120909, “Reshaping an Acyclic Nucleoside Phosphonate into a Selective Anti-hepatitis B Virus Compound” (J Med Chem, 2022)
